Measurements as given in article PMC4684281, “Antitumor Effects and Mechanism of Novel Emodin Rhamnoside Derivatives against Human Cancer Cells In Vitro” (PLoS ONE, 2015).
≈ marks a conversion by molar mass, not a printed value.

Tests used:
HepG2 cells [1] = experiment: Fluorescence microscopy assay (Hoechst 33342); assay type: cell-based, Human
Experimental: HepG2 cells were inoculated in duplicate at 3×10^5/well density in 6-well plate, and allowed to attach at 37°C for 24 hours. Afterwards, cells were treated with 10 μM HCPT, 25 μM emodin and specific concentration EM-d-Rha (0.1μM, 0.5μM, 2.5μM), respectively. Cell control group was set in the same way. […] Medium were exchanged as described previously. In the end, all medium were discarded and cells were digested with 2mL 0.25% Trypsin-EDTA solution at 37°C for 5 min. After cells were harvested, cells were washed with PBS twice followed by centrifuging at 300×g for 5 minutes. Finally, cells were re-suspended in 100μL cold PBS after the supernatant was discarded. Cells were cultured in the dark for 10 minutes at room temperature after adding 100μL 1mg/mL Hoechst 33342 staining solution. Cells were harvested again as described previously to discard the staining solution. Wash the harvested cells twice with PBS before applying to the clean glass slides. The morphological changes of cells nuclei were observed and photographed under the fluorescence microscope (Olympus, Japan) at 350 nm excitation wavelength. The experiment was repeated three times.

A549 cells = experiment: MTT cell viability assay, A549; assay type: cell-based, Human; details: Homo sapiens, A549; MTT, 72 hours; read-out: IC50 values, A549
Experimental: (§1) The viability of cancer cells was evaluated by MTT assay. Briefly, cells were inoculated in 96-well culture plates at the density of 1×10^4/well with complete medium containing 10% fetal calf serum in a final volume of 0.2 mL. Cells were incubated at 37°C for at least 24 hours to allow optimal attachment. When the cells reached 60% confluence, they were treated with Cisplatin, HCPT and emodin rhamnopyranosides derivatives in various concentrations, and incubated in a humidity-controlled 5%CO2 incubator at 37°C for 72 hours. Medium were exchanged once every 24 hours. Cell control group and blank group were set up in the same manner, with each group having six parallel wells. Cell survival was assessed by directly adding 22 μL of 5mg/mL MTT to 0.2 mL medium. After three hours, the formazan precipitate was dissolved in 200μL isopropanol per well, and completely mixed under room temperature. Afterwards, the optical density of each well was detected at 570 nm wavelength by iMark microplate reader (Bio-rad,USA). This experiment was repeated at least three times.

HepG2 cells [2] = experiment: MTT cell viability assay, HepG2; assay type: cell-based, Human; details: Homo sapiens, HepG2; MTT, 72 hours; read-out: IC50 values, HepG2
Experimental: as §1

MDCK cells = experiment: MTT cell viability assay, MDCK; assay type: cell-based, Canine; details: Canis lupus familiaris, 72 hours
Experimental: as §1

OVCAR-3 cells = experiment: MTT cell viability assay, OVCAR-3; assay type: cell-based, Human; details: Homo sapiens, OVCAR-3; MTT, 72 hours; read-out: IC50 values, OVCAR-3
Experimental: as §1

HeLa cells = experiment: MTT cell viability assay, HeLa; assay type: cell-based, Human; details: Homo sapiens, HeLa; MTT, 72 hours; read-out: IC50 values, HeLa
Experimental: as §1

[3] = Solubility (structure-activity remark); assay type: physicochemical; details: one rhamnose introduced into emodin

Structure (SMILES) | Nuclear morphology, Hoechst 33342 (HepG2 cells [1]; HepG2, 2.5μM, 48h) | IC50 (A549 cells) [µg/mL] | IC50 (HepG2 cells [2]) [µg/mL] | Nuclear morphology, Hoechst 33342 (HepG2 cells [1]; HepG2, 25μM) | IC50 (MDCK cells) [µg/mL] | IC50 (OVCAR-3 cells) [µg/mL] | IC50 (HeLa cells) [µg/mL] | Solubility of derivative relative to emodin [3]
CC[C@@]1(O)C(=O)OCc2c1cc1n(c2=O)Cc2cc3cc(O)ccc3nc2-1 [HCPT] | typical apoptotic nuclear morphology | – | – | – | – | – | – | –
Cc1cc(O)c2c(c1)C(=O)c1cc(O)cc(O)c1C2=O [S-1, 3-methyl-1,6,8-trihydroxyanthraquinone, reference compound] | – | 19.5 (≈ 72.3 µM) | 12.8 (≈ 47.3 µM) | displayed apoptotic morphological changes | 5.81 (≈ 21.5 µM) | 25.8 (≈ 95.5 µM) | 12.1 (≈ 44.9 µM) | –
Cc1cc(O)c2c(c1)C(=O)c1cc(O[C@@H]3O[C@@H](C)[C@H](O)[C@@H](O)[C@H]3O)cc(O)c1C2=O [S-2] | – | > 20 | > 20 | – | > 20 | > 20 | > 20 | –
CC(=O)O[C@@H]1[C@@H](O)[C@H](C)O[C@@H](Oc2cc(O)c3c(c2)C(=O)c2cc(C)cc(O)c2C3=O)[C@@H]1OC(C)=O [S-3] | – | > 20 | > 20 | – | > 20 | > 20 | > 20 | improved
CC(=O)O[C@@H]1[C@@H](O)[C@@H](OC(C)=O)[C@H](Oc2cc(O)c3c(c2)C(=O)c2cc(C)cc(O)c2C3=O)O[C@H]1C [S-4] | – | 9.27 (≈ 18.5 µM) | > 20 | – | > 20 | > 20 | > 20 | –
CC(=O)O[C@@H]1[C@@H](OC(C)=O)[C@@H](O)[C@H](Oc2cc(O)c3c(c2)C(=O)c2cc(C)cc(O)c2C3=O)O[C@H]1C [S-5] | – | 3.16 (≈ 6.31 µM) | 1.32 (≈ 2.64 µM) | – | 14.8 (≈ 29.6 µM) | > 20 | 5.34 (≈ 10.7 µM) | –
CC(=O)O[C@@H]1[C@@H](O)[C@@H](O)[C@H](Oc2cc(O)c3c(c2)C(=O)c2cc(C)cc(O)c2C3=O)O[C@H]1C [S-6] | – | 2.25 (≈ 4.91 µM) | > 20 | – | 21.1 (≈ 46 µM) | > 20 | > 20 | –
COc1cc(C)cc2c1C(=O)c1c(OC)cc(O[C@@H]3O[C@@H](C)[C@H](O)[C@@H](OC(C)=O)[C@H]3OC(C)=O)cc1C2=O [S-9] | – | 3.63 (≈ 6.87 µM) | 4.43 (≈ 8.38 µM) | – | 1.39 (≈ 2.63 µM) | 9.72 (≈ 18.4 µM) | 4.93 (≈ 9.33 µM) | –
